According to US20110112099A1, “THERAPEUTIC AGENT FOR CANCER RESISTANT TO PROTEASE INHIBITOR” (KYOWA HAKKO KIRIN CO., LTD., priority 2007, published 2011):
Read-outs that look alike come from different tables or passages of the source. Where a SMILES comes first, the peptide text is derived from it. The star is where a group is joined. Cbz = O=C(OCc1ccccc1)*

Assays:
OPM-2 cells = assay: Test for the growth inhibition to OPM-2 (WST-1, 72 hours); assay type: cell-based, human; settings: read-out: IC50 OPM-2 (growth-inhibitory effect, viable cell number)
Method: (§1) A cell solution (90 μL/well) of OPM-2 or OPM-2/Bor suspended in an RPMI1640 medium containing 10% FCS (hereinafter referred to as culture medium) at a concentration of 5×10^4 cells/mL was inoculated in a 96-well microplate (Nunc), and as for a blank the culture medium (100 μL/well each) was added, and the plate was incubated in a 5% carbon dioxide incubator for 5 hours.
(§2) The test compound was serially diluted to yield a diluted solution having a concentration of 10-fold of the final concentration and the solution (10 μL/well each) was added (n=3 for one concentration). As for a control, the culture medium containing no test compound (10 μL/well each) was added. The tests for the control and the blank were performed in n=8. The incubation was carried out for 72 hours after addition of the test compound, and the number of viable cells was counted with a cell proliferation reagent WST-1 (WST-1 reagent; Roche Diagnostics). The WST-1 reagent (10 μL/well) was added to each plate. The plate was incubated in a carbon dioxide incubator for 2 hours, then stirred on a plate mixer, and the absorbance was measured at 450 nm and 655 nm using a microplate spectrophotometer (Molecular Device; SPECTRAmax 340PC-384). For each well, the differential absorbance was calculated by subtracting the absorbance at 655 nm from that at 450 nm. Further, the absorbance corresponding to the viable cell number was calculated by subtracting the differential absorbance of the blank from the above differential absorbance.
(§3) The followings describe the calculation method for IC50. The absorbance corresponding to the viable cell number obtained in the wells untreated with the test compound was regarded as 100%, and the absorbance obtained in the wells treated with the test compound was represented by the relative value (% control). From these values, the IC50 of viable cell number (the concentration at which the viable cell number is reduced to 50% of the control) was calculated. FIGS. 5 to 8 show the % control at the respective concentration of the test compound after treatment with the test compound. […]

[1] = tested on: OPM-2/Bor (bortezomib-resistant OPM-2 cells); assay: Test for the growth inhibition to OPM-2/Bor (WST-1, 72 hours); assay type: cell-based, human; settings: for IC50: OPM-2/Bor cells, 72 hours, WST-1, read-out: IC50 OPM/Bor (growth-inhibitory effect, viable cell number); for IC50 ratio (IC50 of OPM-2/Bor divided by IC50 of OPM-2): degree of bortezomib resistance, OPM-2/Bor vs OPM-2
Method: OPM-2 cells were suspended in an RPMI1640 medium containing 10% fetal calf serum (FCS) at a concentration of 5×10^4 cells/mL, and incubated at 37° C. in a 5% carbon dioxide incubator. Then, bortezomib was added thereto to adjust the final concentration of 2.5 nmol/L, and the incubation was continued. After confirmation of the survival and satisfactory growth of the cells, bortezomib was added at a concentration of 3.75 nmol/L, and the incubation was continued. Then, after confirmation of the survival and satisfactory growth of the cells, the concentration of bortezomib was increased step by step, and the culture and subculture were repeated to create the bortezomib-resistant OPM-2 cells being capable of growing at a concentration of 15 nmol/L of bortezomib. Hereinafter, thus prepared cell line was referred to as “OPM-2/Bor”.
as §1, §2
(§4) The followings describe the calculation method for IC50. The absorbance corresponding to the viable cell number obtained in the wells untreated with the test compound was regarded as 100%, and the absorbance obtained in the wells treated with the test compound was represented by the relative value (% control). From these values, the IC50 of viable cell number (the concentration at which the viable cell number is reduced to 50% of the control) was calculated. FIGS. 5 to 8 show the % control at the respective concentration of the test compound after treatment with the test compound. […] In addition, values in which IC50 ratio for OPM-2/Bor was divided by IC50 of OPM-2 (IC50 ratio) is shown in Table 4 as the degree of bortezomib resistance in the respective test compounds.

[2] = tested on: KMS-11/Bor (bortezomib-resistant KMS-11 cells); assay: Test for the growth inhibition to KMS-11/Bor (WST-1, 72 hours); assay type: cell-based, human; settings: for IC50: KMS-11/Bor cells, 72 hours, WST-1, read-out: IC50 KMS-11/Bor (growth-inhibitory effect, viable cell number); for IC50 ratio (IC50 of KMS-11/Bor divided by IC50 of KMS-11): degree of bortezomib resistance, KMS-11/Bor vs KMS-11
Method: KMS-11 cells were suspended in an RPMI1640 medium containing 10% fetal calf serum (FCS) at a concentration of 5×10^4 cells/mL, and incubated at 37° C. in a 5% carbon dioxide incubator. Then, bortezomib was added thereto to adjust the final concentration of 5 nmol/L, and the incubation was continued. After confirmation of the survival and satisfactory growth of the cells, the cells were suspended at a concentration of 5×10^4 cells/mL, then bortezomib was added at a concentration of 10 nmol/L, and the incubation was continued. Then, after confirmation of the survival and satisfactory growth of the cells, the concentration of bortezomib was increased step by step, and the culture and subculture were repeated to create the bortezomib-resistant KMS-11 cells being capable of growing at a concentration of 100 nmol/L of bortezomib. Hereinafter, thus prepared cell line was referred to as “KMS-11/Bor”.
as §1, with “KMS-11” for “OPM-2”, “KMS-11/Bor” for “OPM-2/Bor”
as §2, with “final concentration,” for “final concentration”
as §4, with “FIGS. 1” for “FIGS. 5”, “to 4” for “to 8”, “IC50 of KMS-11/Bor is” for “IC50 ratio for OPM-2/Bor was”, “of KMS-11” for “of OPM-2”, “Table 3” for “Table 4”

KMS-11 cells = assay: Test for the growth inhibition to KMS-11 (WST-1, 72 hours); assay type: cell-based, human; settings: read-out: IC50 KMS-11 (growth-inhibitory effect, viable cell number)
Method: as §1, with “KMS-11” for “OPM-2”, “KMS-11/Bor” for “OPM-2/Bor”
as §2, with “final concentration,” for “final concentration”
as §3, with “FIGS. 1” for “FIGS. 5”, “to 4” for “to 8”

[3] = tested on: refractory/recurrent multiple myeloma; settings: phase I, 17-AAG alone; cited from earlier work
[4] = tested on: refractory/recurrent multiple myeloma; settings: clinical, New England Journal of Medicine 348, 2609; cited from earlier work
OPM-2/Bor cells = assay: Anti-tumor effect in a mouse model to which the OPM-2/Bor cells have been implanted; assay type: in vivo; settings: for T/C value (V/V0 of group divided by V/V0 of negative control group): Day 14, OPM-2/Bor implanted scid mice
Method: The day before the implantation of cancer cells, an anti-asialo GM1 antibody (0.3 mg/mouse each) was administered intraperitoneally to Fox C. B-17/Icr-scidJcl mice (CLEA Japan, Inc.). The OPM-2/Bor cells were grown by incubation in an RPMI1640 medium containing 10% FCS at 37° C. in a 5% carbon dioxide incubator, and implanted into the ventral subcutaneous portion at a dose of 1×10^7 cells/mouse. Eighteen days after implantation, the major axis and minor axis of the tumor growing in the subcutaneous portion were measured with a vernier micrometer, and the tumor volume was calculated according to the following equation.
At the same time, the body weight of each mouse was measured, and the mice were divided into the following administration groups consisting of 5 mice per group so that the average tumor volume and the average body weight became uniform; and this day was regarded as the test-starting day 0, on which the administration was started.
Compound 22 was dissolved in physiological saline (Otsuka Pharmaceutical Co., Ltd.) at a concentration of 10 or 5 mg/mL, and administered intravenously in the tail vein at a dose of 0.01 mL/g body weight of mouse, respectively, (corresponding to 100 mg/kg and 50 mg/kg) twice a day continuously up to the 4th day from the starting day 0.
Bortezomib was dissolved in physiological saline at a concentration of 0.1 or 0.05 mg/mL, and administered intravenously in the tail vein at a dose of 0.01 mL/g body weight of mouse, respectively, (corresponding to […] and 0.5 mg/kg) once a day on the starting day 0, […].
A. Negative control group (Control): No administration of the test compound B. Bortezomib administered group: 1 mg/kg (administered once a day on the days 0, 3, 7, and 10) C. […]
Following the day 0, the tumor volume was measured twice a week. The anti-tumor effect was determined by calculating the average value of the tumor volume in each group and comparing a change of the tumor volume (V/V0), wherein the tumor volume on the day 0 was defined as V0.

[5] = tested on: refractory/recurrent multiple myeloma; settings: phase I, IPI-504 alone; cited from earlier work

| SMILES | IC50 (OPM-2 cells; Homo sapiens) [nM] | IC50 ([1]; Homo sapiens) [nM] | IC50 ratio (IC50 of OPM-2/Bor divided by IC50 of OPM-2) [1] | IC50 ([2]; Homo sapiens) [nM] | IC50 ratio (IC50 of KMS-11/Bor divided by IC50 of KMS-11) [2] | IC50 (KMS-11 cells; Homo sapiens) [nM] | IC50 (OPM-2 cells) [nM] | IC50 [1] [nM] | IC50 [2] [nM] | IC50 (KMS-11 cells) [nM] | Patients with stable disease (SD) or more effect [3] | Share of refractory/recurrent multiple myeloma in which the drug is effective [4] | Share of refractory/recurrent multiple myeloma in which the drug is ineffective [4] | T/C value (V/V0 of group divided by V/V0 of negative control group) (OPM-2/Bor cells; B group: 1 mg/kg intravenously once a day on days 0, 3, 7, 10) | T/C value (V/V0 of group divided by V/V0 of negative control group) (OPM-2/Bor cells; C group: 0.5 mg/kg intravenously once a day on days 0, 3, 7, 10) | Anti-tumor effect, change of tumor volume (V/V0), FIG. 9 (OPM-2/Bor cells; OPM-2/Bor implanted mice, Compound 22 100 and 50 mg/kg, bortezomib 1 and 0.5 mg/kg) | Cases with SD as anti-tumor effect [5] |
| --- | --- | --- | --- | --- | --- | --- | --- | --- | --- | --- | --- | --- | --- | --- | --- | --- | --- |
| CC(C)C[C@@H](C=O)NC(=O)[C@H](CC(C)C)NC(=O)[C@H](CC(C)C)NC(=O)OCc1ccccc1 [MG-132] (Cbz-Leu-Leu-Leu-aldehyde) | 94 | 1500 | 16 | 2000 | 7.7 | 260 |  |  |  |  |  |  |  |  |  |  |  |
| C=CCNC1=C2C[C@@H](C)C[C@H](OC)[C@H](O)[C@@H](C)/C=C(\C)[C@H](OC(N)=O)[C@@H](OC)/C=C\C=C(/C)C(=O)NC(=CC1=O)C2=O [Compound 17-AAG, 17-allylamino-17-demethoxygeldanamycin] |  |  | 1.1 |  | 0.76 |  | 310 | 350 | 62 | 82 | 9 out of the 22 |  |  |  |  |  |  |
| CC(C)C[C@H](NC(=O)[C@H](Cc1ccccc1)NC(=O)c1cnccn1)B(O)O [Bortezomib, bortezomib] | 3.9 | 110 | 28 | 170 | 21 | 8.2 |  |  |  |  |  | approximately 35% | approximately 40% | 0.85 | 1.0 | did not show a remarkable growth inhibitory effect |  |
| C=CCNc1c(O)cc2c(O)c1C[C@@H](C)C[C@H](OC)[C@H](O)[C@@H](C)/C=C(\C)[C@H](OC(N)=O)[C@@H](OC)/C=C\C=C(/C)C(=O)N2 [IPI-504] |  |  |  |  |  |  |  |  |  |  |  |  |  |  |  |  | 3 out of the 17 |
